Assay results published in US20130202629A1, “USES OF PHOSPHOLIPID CONJUGATES OF SYNTHETIC TLR7 AGONISTS” (The Regents of the University of California, priority 2010, published 2013).
Values joined by “and” are separate entries in the source; they are usually repeats but may differ in a detail not shown here. Equal entries are not always repeated.

Tests used:
[1] = system: C57BL/6 mice or caspase 1 deficient; assay: Induction of bladder inflammation by intravesical treatment; type: in vivo, mouse; details: intravesical 150 nmoles
Text: C57BL/6 mice or caspase 1 deficient were intravesically treated with 150 nmoles 1V270 or vehicle alone three times at two-day intervals. One set of mice was sacrificed twenty-four hours after the first treatment (FIG. 7). Another set of mice was sacrificed twenty-four hours after the third treatment. […] This inflammation was not detected in the caspase 1 deficient mice.

TLR7 [2] = assay: IL-12 and IL-6 induction in BMDM from wild type and TLR7 deficient mice; type: cell-based, mouse; details: BMDM from TLR7 deficient (TLR7-KO) mice
Solubility = type: physicochemical
A/J mice = assay: Local (BALF) and systemic cytokine induction after intranasal administration; type: in vivo, mouse
Method: 1V270 induces local inflammation by pulmonary administration. To study the ability of phospholipid conjugated TLR7 to initiate the local inflammation, 6 to 8-week old female A/J mice were intranasally administered with 1V270 (0.5, 1, 2 or 4 nmol per animal) in 5% DMSO in PBS. Mice were sacrificed two hours after the administration and serum and bronchial lavage fluid (BALF) were collected. The levels of IL-6, IL-12 and TNFα were determined by Luminex beads assay.
A/J mice received 10 nmol/animal 1V270 intranasally and BALF were collected 24, 48, and 72 hours after the administration. 1V270 could induce IL-12 and TNFα up to 48 hours (FIG. 10).
BALF and plasma were collected 24 hours later and cytokine levels determined by multiplex luminex assay.

TLR7 [3] = target: T1, TLR7 (Homo sapiens, UniProt Q9NYK1); assay: Cytokine induction (IL-6, IFNalpha1; Luminex) in human PBMC; type: cell-based; details: 18 hours, IL-6 (FIG. 3A)
T1 sequence (Q9NYK1 27-1049): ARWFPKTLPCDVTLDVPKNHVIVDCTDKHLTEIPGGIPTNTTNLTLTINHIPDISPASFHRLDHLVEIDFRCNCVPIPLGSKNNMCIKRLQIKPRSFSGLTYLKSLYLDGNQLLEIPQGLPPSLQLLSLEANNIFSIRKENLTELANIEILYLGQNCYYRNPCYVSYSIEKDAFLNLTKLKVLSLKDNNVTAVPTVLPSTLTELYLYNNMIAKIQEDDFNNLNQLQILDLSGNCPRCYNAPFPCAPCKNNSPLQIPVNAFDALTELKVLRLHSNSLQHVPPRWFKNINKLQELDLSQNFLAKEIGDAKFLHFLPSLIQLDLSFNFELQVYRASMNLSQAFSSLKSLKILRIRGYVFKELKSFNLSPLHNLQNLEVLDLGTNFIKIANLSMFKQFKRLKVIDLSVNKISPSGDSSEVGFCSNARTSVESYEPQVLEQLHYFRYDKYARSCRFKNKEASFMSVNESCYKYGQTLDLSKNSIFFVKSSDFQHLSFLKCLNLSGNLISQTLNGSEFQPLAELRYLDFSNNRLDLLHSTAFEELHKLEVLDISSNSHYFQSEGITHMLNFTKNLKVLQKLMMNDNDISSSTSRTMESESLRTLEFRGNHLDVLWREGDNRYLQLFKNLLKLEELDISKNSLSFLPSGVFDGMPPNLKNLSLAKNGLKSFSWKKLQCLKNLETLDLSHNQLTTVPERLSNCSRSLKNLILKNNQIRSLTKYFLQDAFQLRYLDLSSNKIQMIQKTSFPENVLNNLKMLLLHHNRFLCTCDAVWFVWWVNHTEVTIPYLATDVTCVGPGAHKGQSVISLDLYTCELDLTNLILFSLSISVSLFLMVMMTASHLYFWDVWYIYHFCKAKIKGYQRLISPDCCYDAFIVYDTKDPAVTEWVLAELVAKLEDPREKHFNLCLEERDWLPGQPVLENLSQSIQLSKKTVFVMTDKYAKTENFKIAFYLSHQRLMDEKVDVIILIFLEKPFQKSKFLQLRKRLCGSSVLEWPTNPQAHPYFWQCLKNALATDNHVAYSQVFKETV

CCCCCCCC/C=C\CCCCCCCC(=O)OCC(COP(=O)(O)OCCNC(=O)c1ccc(Cn2c(=O)[nH]c3c(N)nc(OCCOC)nc32)cc1)OC(=O)CCCCCCC/C=C\CCCCCCCC (stereo not shown) [Compound 6, 2-(4-((6-amino-2-(2-methoxyethoxy)-8-oxo-7H-purin-9(8H)-yl)methyl)benzamido)ethyl 2,3-bis(oleoyloxy)propyl phosphate]
bladder inflammation (mononuclear cell infiltration) ([1]; C57BL/6 mice, three times at two-day intervals): infiltration of mononuclear cells were observed and increased after the third treatment
bladder inflammation in caspase 1 deficient mice ([1]; caspase 1 deficient mice): not detected
IL-12 and IL-6 induction in TLR7 deficient BMDM (TLR7 [2]): little or no IL-12 and IL-6
solubility, in words (Solubility; aqueous solution / suitable solvents for testing): difficulty in dissolution
upper limit of solubility (Solubility; in PBS): ~100 µM
persistence of IL-12 and TNFα induction in BALF (A/J mice; i.n. 10 nmol/animal): up to 48 hours
local proinflammatory cytokines (IL-6, IL-12, TNFα) in BALF (A/J mice; i.n. 2 to 4 nmol in 5% DMSO in PBS, two hours after administration): induced local proinflammatory cytokines in the BALF
localized versus systemic cytokine release (A/J mice; i.n., BALF and plasma 24 hours later): promoted localized cytokine release with minimal systemic side effects
BALF cytokine levels compared with serum (A/J mice; i.n., two hours after administration): higher than those in the serum
order of TLR7 conjugate potency (TLR7 [3]): (4b)>(6)>(9)>/=SM>(8) and 4b>6>9>SM=8
